Test results published in ChEMBL document CHEMBL5620353, “Novel antifungal triazoles with alkynyl-methoxyl side chains: Design, synthesis, and biological activity evaluation” (Eur J Med Chem, 2023).
≈ marks a conversion by molar mass, not a printed value. Calls of active or inactive are those of the source. The rule behind the calls is not given here.

Tests used:
Candida parapsilosis [1] = test: Antifungal activity against Candida parapsilosis 22019 assessed as inhibition of fungal growth incubated for 48 hrs by microbroth dilution method; type: functional; conditions: Lodderomyces parapsilosis
Candida tropicalis = test: Antifungal activity against Candida tropicalis 8915 assessed as inhibition of fungal growth incubated for 48 hrs by microbroth dilution method; type: functional
Candida albicans [2] = test: Antifungal activity against fluconazole-resistant Candida albicans 904 assessed as inhibition of fungal growth incubated for 48 hrs by microbroth dilution method; type: functional
[Candida] auris [3] = Antifungal activity against fluconazole-resistant Candida auris 891 assessed as inhibition of fungal growth incubated for 48 hrs by microbroth dilution method; type: functional; conditions: Candidozyma auris
[Candida] auris [4] = Antifungal activity against fluconazole-resistant Candida auris 918 assessed as inhibition of fungal growth incubated for 48 hrs by microbroth dilution method; type: functional; conditions: Candidozyma auris
Candida albicans [5] = test: Antifungal activity against Candida albicans SC5314 assessed as inhibition of fungal growth at 0.0625 ug/ml measured after 12 hrs by optical density based method; type: functional
Candida albicans [6] = test: Inhibition of biofilm formation in Candida albicans SC5314 at 64 ug/ml incubated for 24 hrs by XTT reduction assay relative to control; type: functional
[7] = molecular target: T1, Lanosterol 14-alpha demethylase (Candida albicans (strain SC5314 / ATCC MYA-2876) (Yeast), UniProt P10613); test: Inhibition of Lanosterol 14-alpha demethylase in Candida albicans SC5314 assessed as remaining ergosterol level at 8 ug/ml incubated for 8 hrs by GC-MS analysis (reference value: 89.76%); conditions: at 8 µg/mL
T1 sequence (P10613 whole entry): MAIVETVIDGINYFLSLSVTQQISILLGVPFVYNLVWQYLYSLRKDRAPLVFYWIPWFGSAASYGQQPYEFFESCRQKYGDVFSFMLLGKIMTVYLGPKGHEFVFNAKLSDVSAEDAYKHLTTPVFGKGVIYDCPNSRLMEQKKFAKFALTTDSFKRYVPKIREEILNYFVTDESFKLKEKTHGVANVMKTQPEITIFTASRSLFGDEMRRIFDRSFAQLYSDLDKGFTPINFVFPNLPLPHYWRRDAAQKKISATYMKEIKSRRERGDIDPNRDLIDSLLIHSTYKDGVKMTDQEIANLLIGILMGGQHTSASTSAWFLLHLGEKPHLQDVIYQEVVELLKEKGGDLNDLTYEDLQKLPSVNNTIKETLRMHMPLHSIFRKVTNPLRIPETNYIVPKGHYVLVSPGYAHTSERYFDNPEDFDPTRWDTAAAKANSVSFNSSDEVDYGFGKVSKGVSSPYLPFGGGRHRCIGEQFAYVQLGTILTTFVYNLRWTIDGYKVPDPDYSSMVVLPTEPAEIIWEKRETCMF

[8] = Selectivity index, ratio of IC50 for HUVEC cells to MIC for Candida glabrata 537; type: toxicity; conditions: human, HUVEC cells versus Candida glabrata 537; read-out: Selectivity Index
Cytochrome P450 2D6 = Cytochrome P450 2D6 (Homo sapiens, UniProt P10635); test: Inhibition of human CYP2D6 using dextromethorphan as substrate prewarmed for 10 mins followed by NADPH addition and measured after 10 mins by LC-MS/MS analysis; type: ADME
Sequence of Cytochrome P450 2D6 (P10635 whole entry): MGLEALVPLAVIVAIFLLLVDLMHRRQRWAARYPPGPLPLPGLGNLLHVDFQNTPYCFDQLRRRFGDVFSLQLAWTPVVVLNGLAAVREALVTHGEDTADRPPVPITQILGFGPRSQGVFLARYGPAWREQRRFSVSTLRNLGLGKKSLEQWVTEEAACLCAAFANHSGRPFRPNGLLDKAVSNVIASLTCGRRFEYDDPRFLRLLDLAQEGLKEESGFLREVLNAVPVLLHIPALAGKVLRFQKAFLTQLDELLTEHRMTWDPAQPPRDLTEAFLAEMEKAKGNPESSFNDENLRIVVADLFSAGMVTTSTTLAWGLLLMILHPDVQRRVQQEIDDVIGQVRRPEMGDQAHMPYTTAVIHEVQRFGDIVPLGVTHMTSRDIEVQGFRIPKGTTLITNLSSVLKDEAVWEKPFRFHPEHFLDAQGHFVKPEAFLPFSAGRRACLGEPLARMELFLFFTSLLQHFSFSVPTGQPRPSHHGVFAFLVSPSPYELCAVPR

Cytochrome P450 3A4 = Cytochrome P450 3A4 (Homo sapiens, UniProt P08684); test: Inhibition of human CYP3A4 using midazolam as substrate prewarmed for 10 mins followed by NADPH addition and measured after 10 mins by LC-MS/MS analysis; type: ADME
Sequence of Cytochrome P450 3A4 (P08684 whole entry): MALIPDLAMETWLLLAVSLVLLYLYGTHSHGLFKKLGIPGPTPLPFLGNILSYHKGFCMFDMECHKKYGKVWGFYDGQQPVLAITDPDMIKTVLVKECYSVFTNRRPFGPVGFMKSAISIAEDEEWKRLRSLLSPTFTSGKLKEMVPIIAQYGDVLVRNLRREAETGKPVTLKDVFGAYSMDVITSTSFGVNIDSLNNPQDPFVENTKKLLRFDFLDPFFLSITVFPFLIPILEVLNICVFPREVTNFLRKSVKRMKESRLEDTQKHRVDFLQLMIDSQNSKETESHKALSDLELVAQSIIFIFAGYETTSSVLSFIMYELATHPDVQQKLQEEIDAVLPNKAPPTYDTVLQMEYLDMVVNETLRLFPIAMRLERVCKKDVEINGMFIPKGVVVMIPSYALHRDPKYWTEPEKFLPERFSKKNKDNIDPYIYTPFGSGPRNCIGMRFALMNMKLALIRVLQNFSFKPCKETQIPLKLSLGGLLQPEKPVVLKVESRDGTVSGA

[9] = Metabolic stability in human liver microsomes assessed as intrinsic clearance at 1 uM preincubated for 10 mins followed by NADPH addition and measured upto 60 mins by LC-MS/MS analysis; type: ADME, Microsome; conditions: time < 70 min, read-out: CLH
Saccharomyces cerevisiae [10] = test: Antifungal activity against recombinant Saccharomyces cerevisiae Y2301 overexpressing ScErg11 Y140F assessed as inhibition of fungal growth incubated for 48 hrs by microbroth dilution method; type: functional
Saccharomyces cerevisiae [11] = test: Resistance index, ratio of MIC for recombinant Saccharomyces cerevisiae Y525 overexpressing CaMdr1 to MIC for recombinant Saccharomyces cerevisiae Y2411 overexpressing ScErg11; type: functional
Candida albicans [12] = test: Antifungal activity against Candida albicans SC5314 assessed as inhibition of fungal growth incubated for 48 hrs by spot assay; type: functional, organism-based; conditions: dose 0.5-1 µg/ml
Candida albicans [13] = test: Antifungal activity against Candida albicans 904 assessed as inhibition of fungal growth incubated for 48 hrs by spot assay; type: functional, organism-based; conditions: dose 0.5-1 µg/ml
Candida albicans [14] = test: Antifungal activity against Candida albicans 904 assessed as reduction in fungal viability incubated for 48 hrs by spot assay; type: functional, organism-based; conditions: dose 0.5-1 µg/ml
Candida albicans [15] = test: Antifungal activity against Candida albicans SC5314 assessed as reduction in fungal viability incubated for 48 hrs by spot assay; type: functional, organism-based; conditions: dose 0.5-1 µg/ml
Candida parapsilosis [16] = test: Antifungal activity against Candida parapsilosis 22019 assessed as reduction in fungal viability incubated for 48 hrs by spot assay; type: functional, organism-based; conditions: dose 0.5-1 µg/ml
Candida parapsilosis [17] = test: Antifungal activity against Candida parapsilosis 22019 assessed as inhibition of fungal growth incubated for 48 hrs by spot assay; type: functional, organism-based; conditions: dose 0.5-1 µg/ml
Nakaseomyces glabratus [18] = test: Antifungal activity against Candida glabrata 537 assessed as inhibition of fungal growth incubated for 48 hrs by spot assay; type: functional, organism-based; conditions: dose 0.5-1 µg/ml
Nakaseomyces glabratus [19] = test: Antifungal activity against Candida glabrata 537 assessed as reduction in fungal viability incubated for 48 hrs by spot assay; type: functional, organism-based; conditions: dose 0.5-1 µg/ml
[Candida] auris [20] = Antifungal activity against Candida auris 891 assessed as inhibition of fungal growth incubated for 48 hrs by spot assay; type: functional, organism-based; conditions: Candidozyma auris, dose 0.5-1 µg/ml
[Candida] auris [21] = Antifungal activity against Candida auris 891 assessed as reduction in fungal viability incubated for 48 hrs by spot assay; type: functional, organism-based; conditions: Candidozyma auris, dose 0.5-1 µg/ml
[22] = molecular target: T1, Lanosterol 14-alpha demethylase; test: Inhibition of Lanosterol 14-alpha demethylase in Candida albicans SC5314 assessed as reduction in ergosterol level at 8 ug/ml incubated for 8 hrs by GC-MS analysis relative to control; conditions: at 8 µg/mL
Candida albicans [23] = test: Antifungal activity against Candida albicans SC5314 assessed as inhibition of fungal growth at 16 ug/ml measured after 24 hrs by optical density based method; type: functional
Candida albicans [24] = test: Antifungal activity against Candida albicans assessed as reduction in hyphal length at 16 ug/ml; type: functional, organism-based; conditions: dose 16.0 µg/ml
Candida albicans [25] = test: Antifungal activity against Candida albicans assessed as increase in pseudohyphae at 16 ug/ml; type: functional, organism-based; conditions: dose 16.0 µg/ml
[26] = molecular target: T1, Lanosterol 14-alpha demethylase; test: Inhibition of Lanosterol 14-alpha demethylase in Candida albicans SC5314 assessed as increase in lanosterol level at 8 ug/ml incubated for 8 hrs by GC-MS analysis (reference value: 2.79%); design: scale not given: the % may be the effect or the level left; conditions: at 8 µg/mL
[27] = molecular target: T1, Lanosterol 14-alpha demethylase; test: Inhibition of Lanosterol 14-alpha demethylase in Candida albicans SC5314 assessed as increase in eburicol level at 8 ug/ml incubated for 8 hrs by GC-MS analysis relative to control; design: scale not given: the % may be the effect or the level left; conditions: at 8 µg/mL
[28] = molecular target: T1, Lanosterol 14-alpha demethylase; test: Inhibition of Lanosterol 14-alpha demethylase in Candida albicans SC5314 assessed as increase in obtusifoliol level at 8 ug/ml incubated for 8 hrs by GC-MS analysis relative to control; design: scale not given: the % may be the effect or the level left; conditions: at 8 µg/mL
[29] = molecular target: T1, Lanosterol 14-alpha demethylase; test: Inhibition of Lanosterol 14-alpha demethylase in Candida albicans SC5314 assessed as increase in 14alpha-methylfecosterol level at 8 ug/ml incubated for 8 hrs by GC-MS analysis relative to control; design: scale not given: the % may be the effect or the level left; conditions: at 8 µg/mL
Candida albicans [30] = test: Antifungal activity against Candida albicans SC5314 infected in Galleria mellonella larvae assessed as delay in time of larval death at 8 mg/kg measured after 10 days post inoculation; type: functional, organism-based; conditions: time 10.0 day
Candida albicans [31] = test: Antifungal activity against Candida albicans SC5314 infected in Galleria mellonella larvae assessed as median survival time at 8 mg/kg measured after 10 days post inoculation; type: functional; conditions: time 10 day
Candida albicans [32] = test: Antifungal activity against Candida albicans SC5314 infected in Galleria mellonella larvae assessed as larval survival rate at 8 mg/kg measured after 10 days post inoculation relative to control; type: functional; conditions: SC5314, 240 h, time 10 day
Candida albicans [33] = test: Antifungal activity against Candida albicans SC5314 infected in Galleria mellonella larvae assessed as prolongation of survival time at 2 mg/kg measured after 10 days post inoculation; type: functional, organism-based; conditions: time 10.0 day
Candida albicans [34] = test: Antifungal activity against Candida albicans SC5314 infected in Galleria mellonella larvae assessed as increase in survival rate at 2 mg/kg measured after 10 days post inoculation; type: functional, organism-based; conditions: time 10.0 day

Compound: C[C@@H](OCC#Cc1ccncc1)[C@](O)(Cn1cncn1)c1ccc(F)cc1F
- MIC (Candida parapsilosis [1]): ≤ 0.125 µg/mL
- MIC (Candida tropicalis): 32 µg/mL (≈ 83.2 µM)
- MIC (Candida albicans [2]): 32 µg/mL (≈ 83.2 µM)
- MIC ([Candida] auris [3]): 32 µg/mL (≈ 83.2 µM)
- MIC ([Candida] auris [4]): 16 µg/mL (≈ 41.6 µM)
- inhibition at 0.0625 µg/mL (Candida albicans [5]): 100%
- inhibition at 64 µg/mL (Candida albicans [6]): 43.4%
- Activity [7]: 1.1%
- selectivity ratio [8]: > 500
- IC50 (Cytochrome P450 2D6): 5.81 µM
- IC50 (Cytochrome P450 3A4): 309 nM
- microsomal CLint at 1 µM [9]: 188 µL/min/mg
- MIC (Saccharomyces cerevisiae [10]): 0.063 µg/mL
- Ratio (Saccharomyces cerevisiae [11]): >=16

Compound: C[C@@H](OCC#Cc1ccc(F)cc1F)[C@](O)(Cn1cncn1)c1ccc(F)cc1F
- MIC (Candida parapsilosis [1]): 0.5 µg/mL (≈ 1.19 µM)
- MIC (Candida tropicalis): 32 µg/mL (≈ 76.3 µM)
- MIC (Candida albicans [2]): 16 µg/mL (≈ 38.2 µM)
- MIC ([Candida] auris [3]): 32 µg/mL (≈ 76.3 µM)
- MIC ([Candida] auris [4]): 16 µg/mL (≈ 38.2 µM)
- Activity (Candida albicans [12]): Dose-Dependent Effect
- Activity (Candida albicans [13]): Dose-Dependent Effect
- Activity (Candida albicans [14]): Dose-Dependent Effect
- Activity (Candida albicans [15]): Dose-Dependent Effect
- Activity (Candida parapsilosis [16]): Dose-Dependent Effect
- Activity (Candida parapsilosis [17]): Dose-Dependent Effect
- Activity (Nakaseomyces glabratus [18]): Dose-Dependent Effect
- Activity (Nakaseomyces glabratus [19]): Dose-Dependent Effect
- Activity ([Candida] auris [20]): Dose-Dependent Effect
- Activity ([Candida] auris [21]): Dose-Dependent Effect
- inhibition at 0.0625 µg/mL (Candida albicans [5]): 100%
- inhibition at 64 µg/mL (Candida albicans [6]): 37%
- inhibition (INH) [22]: ~ 100%
- selectivity ratio [8]: > 500
- IC50 (Cytochrome P450 2D6): 23.8 µM
- IC50 (Cytochrome P450 3A4): 566 nM
- microsomal CLint at 1 µM [9]: 26.2 µL/min/mg
- MIC (Saccharomyces cerevisiae [10]): 0.063 µg/mL
- Ratio (Saccharomyces cerevisiae [11]): >=16

Compound: C[C@@H](OCC#Cc1ccc(C#N)cc1)[C@](O)(Cn1cncn1)c1ccc(F)cc1F
- MIC (Candida parapsilosis [1]): 1 µg/mL (≈ 2.45 µM)
- MIC (Candida tropicalis): ≤ 0.125 µg/mL
- MIC (Candida albicans [2]): 16 µg/mL (≈ 39.2 µM)
- MIC ([Candida] auris [3]): 16 µg/mL (≈ 39.2 µM)
- MIC ([Candida] auris [4]): 32 µg/mL (≈ 78.4 µM)
- Activity (Candida albicans [12]): Dose-Dependent Effect
- Activity (Candida albicans [13]): Dose-Dependent Effect
- Activity (Candida albicans [14]): Dose-Dependent Effect
- Activity (Candida albicans [15]): Dose-Dependent Effect
- Activity (Candida parapsilosis [16]): Dose-Dependent Effect
- Activity (Candida parapsilosis [17]): Dose-Dependent Effect
- Activity (Nakaseomyces glabratus [18]): Dose-Dependent Effect
- Activity (Nakaseomyces glabratus [19]): Dose-Dependent Effect
- Activity ([Candida] auris [20]): Dose-Dependent Effect
- Activity ([Candida] auris [21]): Dose-Dependent Effect
- inhibition at 0.0625 µg/mL (Candida albicans [5]): 100%
- inhibition at 16 µg/mL (Candida albicans [23]): 100%
- inhibition at 64 µg/mL (Candida albicans [6]): 43.9%
- Activity (Candida albicans [24]): Active
- Activity (Candida albicans [25]): Active
- inhibition (INH) [22]: ~ 100%
- Activity [26]: 37.18%
- Activity [27]: 13.13%
- Activity [28]: 12.82%
- Activity [29]: 36.87%
- selectivity ratio [8]: > 500
- IC50 (Cytochrome P450 2D6): 27.2 µM
- IC50 (Cytochrome P450 3A4): 607 nM
- microsomal CLint at 1 µM [9]: 25.6 µL/min/mg
- Activity (Candida albicans [30]): Active
- MST (Candida albicans [31]): 10 days
- survival at 8 mg/kg (Candida albicans [32]): 40%
- Activity (Candida albicans [33]): Active
- Activity (Candida albicans [34]): inactive
- MIC (Saccharomyces cerevisiae [10]): 0.063 µg/mL
- Ratio (Saccharomyces cerevisiae [11]): >=16
